Data published in BindingDB's records for doi:10.1021/jm00107a051 (Merck Sharp and Dohme Research Laboratories, 1991).

Target: T1, Dimer of Gag-Pol polyprotein [489-587] (Human immunodeficiency virus 1, UniProt P12497)
T1 construct: 489-587
Test: Protease Inhibition Assay
Settings: pH 5.5; 30 °C
Method: Sensitivity of HIV-1 protease activity to protease inhibitors was determined by a peptide substrate cleavage assay. Protease products were analyzed on a reverse-phase high-pressure liquid chromatograph.

Compound | IC50
CC(C)(C)OC(=O)N[C@@H](Cc1ccccc1)[C@@H](O)C[C@@H](Cc1ccccc1)C(=O)N[C@H]1c2ccccc2[C@@H](N)[C@H]1O [tert-butyl N-[(2S,3S,5R)-5-{[(1S,2R,3R)-3-amino-2-hydroxy-2,3-dihydro-1H-inden-1-yl]carbamoyl}-5-benzyl-3-hydroxy-1-phenylpentan-2-yl]carbamate] | 0.0019 µM
CC(C)(C)OC(=O)N[C@@H](Cc1ccccc1)[C@@H](O)C[C@@H](Cc1ccccc1)C(=O)N[C@H]1c2ccccc2C[C@H]1C(N)=O [tert-butyl N-[(2S,3S,5R)-5-benzyl-5-{[(1R,2R)-2-carbamoyl-2,3-dihydro-1H-inden-1-yl]carbamoyl}-3-hydroxy-1-phenylpentan-2-yl]carbamate] | 0.0018 µM
CC(C)(C)OC(=O)N[C@@H](Cc1ccccc1)[C@@H](O)C[C@@H](Cc1ccccc1)C(=O)N[C@@H]1c2ccccc2C[C@@H]1O [tert-butyl N-[(2S,3S,5R)-5-benzyl-3-hydroxy-5-{[(1R,2S)-2-hydroxy-2,3-dihydro-1H-inden-1-yl]carbamoyl}-1-phenylpentan-2-yl]carbamate] | 0.229 µM
CC(C)(C)OC(=O)N[C@@H](Cc1ccccc1)[C@@H](O)C[C@@H](Cc1ccccc1)C(=O)NC1Cc2ccccc2C1 [tert-butyl N-[(2S,3S,5R)-5-benzyl-5-(2,3-dihydro-1H-inden-2-ylcarbamoyl)-3-hydroxy-1-phenylpentan-2-yl]carbamate] | 0.019 µM
